According to ChEMBL document CHEMBL3352749, “An iridoid glucoside and the related aglycones from Cornus florida” (J Nat Prod, 2014):
Activity calls are given as the source filed them. No cut-off for these calls is given here.

Experiments:
[1] = molecular target: T1, Peroxisome proliferator-activated receptor gamma (Homo sapiens) (UniProt P37231); experiment: Agonist activity at PPARgamma (unknown origin)
T1 sequence (whole entry): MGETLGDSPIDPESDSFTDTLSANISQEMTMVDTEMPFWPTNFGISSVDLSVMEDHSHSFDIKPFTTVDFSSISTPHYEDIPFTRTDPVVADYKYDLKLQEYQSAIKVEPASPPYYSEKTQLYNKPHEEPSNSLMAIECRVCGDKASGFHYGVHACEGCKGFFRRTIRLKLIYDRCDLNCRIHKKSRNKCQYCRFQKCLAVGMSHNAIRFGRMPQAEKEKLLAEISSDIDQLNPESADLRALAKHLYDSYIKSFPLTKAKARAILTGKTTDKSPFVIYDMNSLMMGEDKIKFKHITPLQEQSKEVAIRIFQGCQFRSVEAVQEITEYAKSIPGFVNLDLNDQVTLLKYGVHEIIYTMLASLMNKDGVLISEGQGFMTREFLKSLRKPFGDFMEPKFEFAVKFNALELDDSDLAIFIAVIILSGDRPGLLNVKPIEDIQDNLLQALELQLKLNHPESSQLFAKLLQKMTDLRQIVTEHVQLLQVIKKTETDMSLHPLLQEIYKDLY

[2] = system: BG02; experiment: Growth inhibition of human BG02 cells up to 100 uM; type: functional, cell-based
[3] = system: MCF7; experiment: Growth inhibition of human MCF7 cells up to 100 uM; type: functional, cell-based
[4] = system: MDA-MB-231; experiment: Growth inhibition of human MDA-MB-231 cells up to 100 uM; type: functional, cell-based

Structure (SMILES) | Activity [1] | Activity [2] | Activity [3] | Activity [4]
C[C@H]1C[C@@H](O)[C@@H]2CC(=O)OC[C@@H]21 | inactive | inactive | inactive | –
COC(=O)[C@H]1C(=O)O[C@H]2C[C@H](C)[C@@H](CO[C@@H]3O[C@H](CO)[C@@H](O)[C@H](O)[C@H]3O)[C@@H]12 | – | inactive | inactive | inactive
C[C@H]1C[C@@H]2OC(=O)C[C@@H]2[C@@H]1CO | inactive | inactive | inactive | inactive

Now from value to molecule, other results behind:

Activity [1] | Structure (SMILES) | Activity [2] | Activity [3] | Activity [4]
inactive | C[C@H]1C[C@@H]2OC(=O)[C@@H]3C(=O)OC[C@H]1[C@@H]32 | inactive | inactive | inactive
inactive | COC(=O)[C@@H]1C(=O)OC[C@H]2[C@@H]1[C@H](O)C[C@@H]2C | inactive | inactive | inactive
